By logP is commonly meant the decadic logarithm of the partition coefficient of the neutral form, usually between octanol and water. Read a low logP as a more hydrophilic compound. One may read the chromatographic logP as lipophilicity estimated from chromatographic retention. A lower chromatographic logP goes with a more hydrophilic compound.

Structures are written as SMILES.

Among the data in patent US20210386069A1 (priority 2018, published 2021) are logP and chromatographic logP values, retold here.

One data set is described as follows: log P by HPLC on a reversed-phase column (C 18), EEC Directive 79/831 Annex V.A8. The data set is classed as physicochemical. The settings on record: HPLC reversed-phase C 18, 40° C., 0.1% aqueous formic acid and acetonitrile, linear gradient 10% to 95% acetonitrile. On the procedure: In table 1, the log P values were determined in accordance with EEC Directive 79/831 Annex V.A8 by HPLC (High Performance Liquid Chromatography) on a reversed-phase column (C 18), using the method described below:
temperature: 40° C.; mobile phases: 0.1% aqueous formic acid and acetonitrile; linear gradient from 10% acetonitrile to 95% acetonitrile;
If more than one Log P value is available within the same method, all the values are given and separated by “;”.
Calibration was carried out using unbranched alkan-2-ones (comprising 3 to 16 carbon atoms) with known log P values (determination of the log P values by the retention times using linear interpolation between two successive alkanones). lambda-max-values were determined using UV-spectra from 200 nm to 400 nm and the peak values of the chromatographic signals.
As for `Fc1ccc(Nc2cnc3ccccc3c2)c(-c2cccnc2)c1` [I.001], the log partition coefficient (logP) is recorded as 1.39.
On the same count and under the same terms, with `Cc1nc2ccccc2nc1Nc1cccc(F)c1-c1ccncc1F` [I.002] the figure was 2.57; with `Cc1nc2c(F)c(F)ccc2cc1Nc1ccccc1-c1ccnnc1` [I.003], 2.28.
The same measure, in the same setting: in the case of `Cc1cncc(-c2ccccc2Nc2cc3ccc(F)c(F)c3nc2C)c1` [I.004] it was 1.99; in that of `Cc1cc(-c2ccccc2Nc2cc3ccc(F)c(F)c3nc2C)ccn1` [I.005], 1.75; in that of `Cc1ccncc1-c1ccccc1Nc1cc2ccc(F)c(F)c2nc1C` [I.006], 1.86.
`Cc1nc2c(F)c(F)ccc2cc1Cc1cccc(F)c1-c1ccncc1` [I.007] gave a log partition coefficient (logP) of 2.00.
For the molecule `Cc1nc2c(F)c(F)ccc2cc1Cc1cccc(F)c1-c1cccnc1` [I.008], the logP was found to be 2.64.
In the case of `Cc1nc2c(F)c(F)ccc2cc1Nc1cccc(F)c1-c1cccnc1` [I.009], the logP worked out at 2.28.
As for `Cc1nc2c(F)c(F)ccc2cc1Nc1cccc(F)c1-c1ccncc1` [I.010], the logP is reported as 2.01.
On the same count and under the same terms, in the case of `Cc1nc2c(F)c(F)ccc2cc1Cc1cccc(F)c1-c1cncnc1` [I.011] it was 2.76.
On the same count and under the same terms, in the case of `Cc1nc2c(F)cccc2cc1Nc1cc(F)ccc1-c1ccncc1F` [I.012] it was 2.95; in that of `Cc1nc2c(F)c(F)ccc2cc1Nc1cccc(F)c1-c1cncnc1` [I.013], 2.61; in that of `Cc1nc2c(F)cccc2nc1Nc1cccc(F)c1-c1ccncc1F` [I.015], 2.67.
`Cc1nc2c(F)c(F)ccc2cc1Nc1cccc(F)c1-c1ccnnc1` [I.016] had a lipophilicity (logP) of 2.44.
For the molecule `Cc1nc2c(F)c(F)ccc2cc1Cc1cccc(F)c1C1=CCCCO1` [I.017], the log partition coefficient (logP) is 4.41.
In turn, `Cc1nc2c(F)c(F)ccc2cc1Nc1cccc(F)c1C1=CCCCO1` [I.018] gave a logP of 4.44.
For the molecule `Cc1nc2c(F)c(F)ccc2cc1Nc1ccccc1-c1ccc(C#N)nc1` [I.019], the log partition coefficient (logP) turned out to be 3.25.
Molecule `Cc1nc2c(F)c(F)ccc2cc1Nc1ccccc1-c1cncc(C#N)c1` [I.020] gave a lipophilicity (logP) of 3.04.
In turn, `Cc1nc2c(F)c(F)ccc2cc1Nc1ccccc1-c1ccncc1C#N` [I.021] had a logP of 1.41.
Same read-out and setting: in the case of `CCc1cnccc1-c1ccccc1Nc1cc2ccc(F)c(F)c2nc1C` [I.022] it was 2.08; in that of `CCc1ccncc1-c1ccccc1Nc1cc2ccc(F)c(F)c2nc1C` [I.023], 2.08.
On the same count and under the same terms, in the case of `CCc1ncccc1-c1ccccc1Nc1cc2ccc(F)c(F)c2nc1C` [I.024] it was 2.03; in that of `Cc1cncc(C)c1-c1ccccc1Nc1cc2ccc(F)c(F)c2nc1C` [I.025], 2.05.
Same read-out and setting: with `Cc1nc2c(F)c(F)ccc2cc1Nc1ccccc1-c1cccc(=O)n1C` [I.026] the figure was 2.52; with `COc1cnccc1-c1ccccc1Nc1cc2ccc(F)c(F)c2nc1C` [I.027], 2.14; with `COc1cc(-c2ccccc2Nc2cc3ccc(F)c(F)c3nc2C)ccn1` [I.028], 3.56.
In turn, `COc1cccc(-c2ccccc2Nc2cc3ccc(F)c(F)c3nc2C)n1` [I.029] registered a logP of 4.66.
The molecule `COc1ccncc1-c1ccccc1Nc1cc2ccc(F)c(F)c2nc1C` [I.030] gave a lipophilicity (logP) of 1.77.
Take `Cc1cc(-c2ccccc2Nc2cc3ccc(F)c(F)c3nc2C)cnc1F` [I.031]: the logP turned out to be 3.69.
Same read-out and setting: in the case of `Cc1cncc(-c2c(F)cccc2Nc2cc3ccc(F)c(F)c3nc2C)c1` [I.032] it was 2.26; in that of `Cc1cc(-c2c(F)cccc2Nc2cc3ccc(F)c(F)c3nc2C)ccn1` [I.033], 1.88.

The same data set, now with this note: reversed-phase HPLC column (C 18); preparation examples; log P as defined in table 1 (HPLC, 0.1% aqueous formic acid/acetonitrile).
`Nc1cccc(F)c1-c1ccncc1F` had a chromatographic logP of 2.38.
The same measure, in the same setting: with `Cc1nc2c(F)c(F)ccc2cc1Cc1cscc1Br` [3-[(4-bromo-3-thienyl)methyl]-7,8-difluoro-2-methylquinoline] the figure was 4.01.
For the molecule `ClCc1cscc1Br` [3-bromo-4-(chloromethyl)thiophene], the chromatographic logP worked out at 2.99.
